Measured values from patent publication US20200261516A1, “Composition for Increasing Muscle Mass” (MORINAGA MILK INDUSTRY CO., LTD., priority 2017, published 2020).

Tested on: C57BL/6 mice
Assay: Mouse test: muscle wet weight (body weight ratio) and gastrocnemius histology after 4-week oral administration
Format: in vivo
Settings: once a day for 4 weeks, n=7/group
Experimental: C57BL/6 mice (Charles River, Japan: healthy mice) were used as test animals to evaluate the effect of 4-week continuous ingestion of Bifidobacterium breve FERM BP-11175 on muscle mass increase.
After receiving the test animals at 9 weeks old, F-2 feed (manufactured by Funabashi Pharm) and tap water were freely ingested. After one week of acclimatization, the test animals were divided into 3 groups (n=7/group): a control group (administered 10 mL/kg body weight of tap water); a Bifidobacterium administration group (administered 10 mL/kg body weight of culture supernatant of Bifidobacterium breve FERM BP-11175 prepared in (1) of test example 1); and a leucine administration group (administered 1.5 g/kg body weight of leucine), and oral administration was continued for each mouse using an oral probe once a day for 4 weeks. After the final administration, the test animals were fasted for 3 hours, followed by treatment under sevoflurane anesthesia, and plantaris and gastrocnemius was removed to measure the wet weight (body weight ratio) of each tissue. For gastrocnemius, the thin-sectioned tissue was stained with HE, and then the tissue was observed under a microscope.

## CC(C)C[C@H](N)C(=O)O [Leucine, leucine]
  Gastrocnemius tissue weight (body weight ratio) [Mean value ± SE]: 5.417 ± 0.125 mg/g body weight
  Plantaris tissue weight (body weight ratio) [Mean value ± SE]: 0.706 ± 0.027 mg/g body weight
